Read-outs that look alike come from different tables or passages of the source.
How the values were obtained:
[1] = US 20210169852 A; cited from earlier work
N87 gastric cancer cells = test: Inhibitory activity of compounds on N87 gastric cancer cells (CellTiter-Glo, 144 h); assay type: cell-based; conditions: for IC50 on N87 cells, ratio to DXD (retest): samples retested together, ratio of measured IC50 to DXD; for IC50 on N87 cells, ratio to DXD: IC50 of PY-X (DXD) set to 1, values are ratios of measured IC50 to DXD, 144 h
Protocol: (§1) On the day of the experiment, the cells were digested with 0.25% trypsin (Gibco, 25200-072), filtered through a 40 μm sieve, diluted with the corresponding medium to a cell density of 1×10^4 cells/mL, and inoculated into a 96-well white cell culture plate (Beyotime, FCP968), with 100 μL of cells added per well. The culture plate was placed in a 37° C. incubator (Thermo 311) containing 5% C02 and incubated for 24 hours. On the second day, the samples to be tested were prepared as a stock solution at a final concentration of 1M in DMSO (Sigma, D1650), then diluted with the corresponding medium to a final concentration of 200 nM, and subjected to four-fold serial dilutions, resulting in a total of 9 concentrations. 100 μL of the diluted sample was added to each well of the 96-well plate. The plate was placed in a 37° C. incubator containing 5% CO2 and incubated for 144 hours. The cell culture plate was then removed, and 100 μL of the cell viability assay reagent (CellTiter-Glo® Luminescent Cell Viability Assay, Promega, G7571) was added to each well. The reaction was carried out in the dark at room temperature for 5 minutes. Luminescence values were read using a microplate reader (TECAN SPARK), and data were processed using Graphpad Prism 7 software.
(§2) PY—Y is referenced in the document (WO2022170971A1); and PY-A is referenced in the document (WO2021148501A1).

[2] = test system: MDA-MB-468 breast cancer cells; test: Inhibitory activity of compounds on MDA-MB-468 breast cancer cells (CellTiter-Glo); assay type: cell-based; conditions: for IC50 on 468 cells, ratio to DXD (retest): samples retested together, ratio of measured IC50 to DXD; for IC50 on 468 cells, ratio to DXD: IC50 of PY-X (DXD) set to 1, values are ratios of measured IC50 to DXD
Protocol: as §1, §2

H82 (SCLC) cells = test: Inhibition of H82 cells by compounds; assay type: cell-based; conditions: PY-X (DXD) set to 1
Protocol: as §1

H1650 (NSCLC) cells = test: Inhibition of H1650 cells by compounds; assay type: cell-based; conditions: PY-X (DXD) set to 1
Protocol: as §1

H1437 (NSCLC) cells = test: Inhibition of H1437 cells by compounds; assay type: cell-based; conditions: PY-X (DXD) set to 1
Protocol: as §1

SW1573 (NSCLC) cells = test: Inhibition of SW1573 cells by compounds; assay type: cell-based; conditions: PY-X (DXD) set to 1
Protocol: as §1

[3] = test system: PANC-1 (Pancreatic) cells; test: Inhibition of PANC-1 cells by compounds; assay type: cell-based; conditions: PY-X (DXD) set to 1
Protocol: as §1

Colo-205 (Colon) cells = test: Inhibition of Colo-205 cells by compounds; assay type: cell-based; conditions: PY-X (DXD) set to 1
Protocol: as §1

HT-29 (Colon) cells = test: Inhibition of HT-29 cells by compounds; assay type: cell-based; conditions: PY-X (DXD) set to 1
Protocol: as §1

A549 (NSCLC) cells = test: Inhibition of A549 cells by compounds; assay type: cell-based; conditions: PY-X (DXD) set to 1
Protocol: as §1

[4] = test system: SW1990 (Pancreatic) cells; test: Inhibition of SW1990 cells by compounds; assay type: cell-based; conditions: PY-X (DXD) set to 1
Protocol: as §1

[5] = Log D of small molecules (1-octanol / phosphate buffer pH 2.5 and pH 7.4, LC-MS/MS); assay type: physicochemical
Protocol: (1) Preparation of 100 mM phosphate buffer (PB) solution at pH 2.5 and pH 7.4 respectively: • a. Preparation of a solution of 100 mM H3PO4 in water: 14.7 M H3PO4 was diluted with water to a concentration of 100 mM H3PO4, and the pH was measured to be approximately 1.8. • b. Preparation of 100 mM NaH2PO4: 5.999 g of NaH2PO4 was dissolved in 500 mL of water and the pH was measured to be approximately 4.5. • c. Preparation of 100 mM Na2HPO4: 7.098 g of Na2HPO4 was dissolved in water to a volume of 500 mL and the pH was measured to be approximately 9.4. • d. Preparation of 100 mM PB (pH 2.5): 15 mL of 100 mM H3PO4 was added to a 50 mL tube, and then pH was adjusted to 2.5±0.05 with 100 mM NaH2PO4. • d. Preparation of 100 mM PB (pH 7.4): 15 mL of 100 mM Na2HPO4 was added to a 50 mL tube, and then pH was adjusted to 7.4±0.05 with 100 mM NaH2PO4.
(2) Saturation of PBs (pH 2.5 and pH 7.4) with 1-octanol: 10 mL of 1-octanol was added to 100 mL of 100 mM PBs (pH 2.5 and pH 7.4), and the mixture was shaken vigorously, and then allowed to stand overnight at room temperature for later use.
(3) Saturation of 1-octanol with PBs (pH 2.5 and pH 7.4): 10 mL of 100 mM PBs (pH 2.5 and pH 7.4) was added to 100 mL of 1-octanol, and the mixture was shaken vigorously, and then allowed to stand overnight at room temperature for later use.
2.1) 2 μL of 10 mM DMSO stock solution of the test compound were dispensed into test tubes, in duplicate.
2.2) 149 μL of PB saturated with 1-octanol (pH 2.5 and 7.4) were added to the tubes.
2.3) 149 μL of PB (pH 2.5 and 7.4) saturated with 1-octanol were added to the corresponding tubes.
2.4) Each tube was vigorously mixed for 2 minutes, then shaken at 800 rpm for 1 hour at room temperature.
2.5) The tubes were centrifuged at 4000 rpm for 5 minutes at room temperature.
2.6) Appropriate volumes of the buffer phase and 1-octanol phase samples were aliquoted.
2.7) These samples were diluted and analyzed using LC-MS/MS without running a calibration curve.
2.8) Data analysis: The log D value of each compound was calculated using the following formula: f

DMS53 (SCLC) cells = test: Inhibition of DMS53 cells by compounds; assay type: cell-based; conditions: PY-X (DXD) set to 1
Protocol: as §1

H358 (NSCLC) cells = test: Inhibition of H358 cells by compounds; assay type: cell-based; conditions: PY-X (DXD) set to 1
Protocol: as §1

H1975 (NSCLC) cells = test: Inhibition of H1975 cells by compounds; assay type: cell-based; conditions: PY-X (DXD) set to 1
Protocol: as §1

H23 (NSCLC) cells = test: Inhibition of H23 cells by compounds; assay type: cell-based; conditions: PY-X (DXD) set to 1
Protocol: as §1

FADU (HNSCC) cells = test: Inhibition of FADU cells by compounds; assay type: cell-based; conditions: PY-X (DXD) set to 1
Protocol: as §1

OVCAR3 (Ovarian) cells = test: Inhibition of OVCAR3 cells by compounds; assay type: cell-based; conditions: PY-X (DXD) set to 1
Protocol: as §1

PA-1 (Ovarian) cells = test: Inhibition of PA-1 cells by compounds; assay type: cell-based; conditions: PY-X (DXD) set to 1
Protocol: as §1

Compound | IC50 in H82 cells, ratio to DXD (H82 (SCLC) cells) | IC50 in H1650 cells, ratio to DXD (H1650 (NSCLC) cells) | IC50 in H1437 cells, ratio to DXD (H1437 (NSCLC) cells) | IC50 in SW1573 cells, ratio to DXD (SW1573 (NSCLC) cells) | IC50 in PANC-1 cells, ratio to DXD [3] | IC50 in Colo-205 cells, ratio to DXD (Colo-205 (Colon) cells) | IC50 in HT-29 cells, ratio to DXD (HT-29 (Colon) cells) | IC50 in A549 cells, ratio to DXD (A549 (NSCLC) cells) | IC50 in SW1990 cells, ratio to DXD [4] | IC50 in DMS53 cells, ratio to DXD (DMS53 (SCLC) cells) | other results
CC[C@@]1(O)C(=O)OCc2c1cc1n(c2=O)Cc2c-1nc1cc(F)c(C)c3c1c2[C@@H](NC(=O)CO)CC3 [DXd] |  |  |  |  |  |  |  |  |  |  | times less active than exatecan [1]: 2-4
CC[C@@]1(O)C(=O)OCc2c1cc1n(c2=O)Cc2c-1nc1cc(F)c(C)c3c1c2[C@@H](NC(=O)OCCCCO)CC3 [PY-4Car2, 4-hydroxybutyl((1S,9S)-9-ethyl-5-fluoro-9-hydroxy-4-methyl-10,13-dioxo-2,3,9,10,13,15-hexahydro-1H,12H-benzo[de]pyrano[3′,4′:6,7]indolizino[1,2-b]quinolin-1-yl)carbamate] | 0.5803 | 0.7384 | 0.9590 | 0.4766 | 0.4865 | 0.4478 | 0.4854 | 0.5433 | 0.3573 |  | IC50 on N87 cells, ratio to DXD (retest) (N87 gastric cancer cells): 0.5046; IC50 on 468 cells, ratio to DXD (retest) [2]: 0.8170; logD ([5]; 1-octanol / phosphate buffer pH 2.5, read-out: Log D2.5 (Oct/buff) Result): 2.44; logD ([5]; 1-octanol / phosphate buffer pH 7.4, read-out: Log D7.4 (Oct/buff) Result): 2.43; solubility in n-octanol compared with PY-4Car, PY-4Car3C and DXD ([5]; different pH values (2.5 and 7.4)): belier solubility in n-octanol
CC[C@@]1(O)C(=O)OCc2c1cc1n(c2=O)Cc2c-1nc1cc(F)c(C)c3c1c2[C@@H](NC(=O)OCCO)CC3 [PY-4Car, 2-hydroxyethyl((1S,9S)-9-ethyl-5-fluoro-9-hydroxy-4-methyl-10,13-dioxy-2,3,9,10,13,15-hexahydro-1H,12H-benzo[de]pyran[3′,4:6,7]indolizino[1,2-b]quinolin-1-yl)carbamate] | 0.4523 | 0.4491 | 0.6526 | 0.3187 | 0.4763 | 0.2923 | 0.3312 | 0.4832 | 0.4822 | 0.5151 | IC50 on N87 cells, ratio to DXD (retest) (N87 gastric cancer cells): 0.3112; IC50 on 468 cells, ratio to DXD (retest) [2]: 0.5193; logD ([5]; pH 2.5): 2.1; logD ([5]; pH 7.4): 2.09
CC[C@@]1(O)C(=O)OCc2c1cc1n(c2=O)Cc2c-1nc1cc(F)c(CO)c3c1c2CCC3 [PY-10, (S)-9-ethyl-5-fluoro-9-hydroxy-4-(hydroxymethyl)-1,2,3,9,12,15-hexahydro-10H,13H-benzo[de]pyrano[3′,4′:6,7]indolizino[1,2-b]quinolin-10,13-dione] | 0.1525 | 0.0456 | 0.1209 | 0.1540 | 0.0915 | 0.1546 | 0.0874 | 0.0792 | 0.2133 | 0.1968 | 
CC[C@@]1(O)C(=O)OCc2c1cc1n(c2=O)Cc2c-1nc1cc(F)c(O)c3c1c2CCC3 [PY-13, (S)-9-ethyl-5-fluoro-4,9-dihydroxy-1,2,3,9,12,15-hexahydro-10H,13H-benzo[de]pyrano[3′,4:6,7]indolizino[1,2-b]quinolin-10,13-dione] | 0.1364 | 0.0415 | 0.0969 | 0.1570 | 0.0810 | 0.1643 | 0.1434 | 0.0899 | 0.1255 | 0.1624 | IC50 on N87 cells, ratio to DXD (N87 gastric cancer cells): 0.0852; IC50 on 468 cells, ratio to DXD [2]: 0.0798; IC50 in H358 cells, ratio to DXD (H358 (NSCLC) cells): 0.1062; IC50 in H1975 cells, ratio to DXD (H1975 (NSCLC) cells): 0.0426; IC50 in H23 cells, ratio to DXD (H23 (NSCLC) cells): 0.0819; IC50 in FADU cells, ratio to DXD (FADU (HNSCC) cells): 0.1648; IC50 in OVCAR3 cells, ratio to DXD (OVCAR3 (Ovarian) cells): 0.0560; IC50 in PA-1 cells, ratio to DXD (PA-1 (Ovarian) cells): 0.1600
CC[C@@]1(O)C(=O)OCc2c1cc1n(c2=O)Cc2c-1nc1cc(F)c(CN)c3c1c2CCC3 [PY-16, (S)-4-(aminomethyl)-9-ethyl-5-fluoro-9-hydroxy-1,2,3,9,12,15-hexahydro-10H,13H-benzo[de]pyrano[3′,4′:6,7]indolizino[1,2-b]quinolin-10,13-dione] | 0.3391 | 0.1421 | 0.2768 | 0.2256 | 0.1325 | 0.3082 | 0.1933 | 0.2053 | 0.4346 | 0.5137 | 
exatecan mesylate [PY-E, reference compound] | 0.5103 | 0.1570 | 0.2303 | 0.3310 | 0.1086 | 0.2938 | 0.1376 | 0.1645 | 0.3581 |  | IC50 on N87 cells, ratio to DXD (N87 gastric cancer cells): 0.4782; IC50 on 468 cells, ratio to DXD [2]: 0.3546; IC50 in H358 cells, ratio to DXD (H358 (NSCLC) cells): 0.2694; IC50 in H1975 cells, ratio to DXD (H1975 (NSCLC) cells): 0.0963; IC50 in H23 cells, ratio to DXD (H23 (NSCLC) cells): 0.1245; IC50 in FADU cells, ratio to DXD (FADU (HNSCC) cells): 0.4464; IC50 in OVCAR3 cells, ratio to DXD (OVCAR3 (Ovarian) cells): 0.2269; IC50 in PA-1 cells, ratio to DXD (PA-1 (Ovarian) cells): 0.3572

From patent US20260199500A1, “Camptothecin Derivative, Conjugate Thereof, Preparation Method Therefor and Medical Use Thereof” (priority 2023, published 2026)
